Laboratory results as given in the supplement of paper PMC10307832.

What was measured:
Assay in all cases: relative viability (nuclei count vs DMSO), 5 days (fraction); higher = more cells survive
[1] = compound: Cn1c(=O)n(-c2ccc(C(C)(C)C#N)cc2)c2c3cc(-c4cnc5ccccc5c4)ccc3ncc21 [Dactolisib] + Nc1ncn([C@H]2C[C@H](O)[C@@H](CO)O2)c(=O)n1 [Decitabine] (partner 2 µM)
How it was run: (§1)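 Relative viability is defined as nuclei in treated wells over nuclei in vehicle wells. Duplicate plates were run and medians reported. Lung cancer cell lines in 1536-well plates were dosed by pin tool one day after seeding, with one drug or with a fixed anchor-drug dose plus five library-drug doses (not always all listed) in √10 steps, and nuclei were counted after 5 days.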

[2] = compound: C1CCC(CC1)N(CCNCCC2=C3C(=C(C=C2)O)NC(=O)CO3)C(=O)CCNCCC4=CC(=C(C=C4)Cl)Cl [AZ505] + O=C(CCCCCCC(=O)Nc1ccccc1)NO [Vorinostat] (partner 1 µM)
How it was run: as §1

[3] = compound: Cn1c(=O)n(-c2ccc(C(C)(C)C#N)cc2)c2c3cc(-c4cnc5ccccc5c4)ccc3ncc21 [Dactolisib] + Cc1nc(Nc2ncc(C(=O)Nc3c(C)cccc3Cl)s2)cc(N2CCN(CCO)CC2)n1 [Dasatinib] (partner 0.075 µM)
How it was run: as §1

[4] = compound: Cn1c(=O)n(-c2ccc(C(C)(C)C#N)cc2)c2c3cc(-c4cnc5ccccc5c4)ccc3ncc21 [Dactolisib] + O=C(CCCCCCC(=O)Nc1ccccc1)NO [Vorinostat] (partner 1 µM)
How it was run: as §1

LCLC-103H
relative viability ([1]; first compound 0.002 µM): 0.678
relative viability ([1]; first compound 0.006325 µM): 0.677
relative viability ([1]; first compound 0.02 µM): 0.592
relative viability ([1]; first compound 0.06325 µM): 0.458
relative viability ([1]; first compound 0.2 µM): 0.433
relative viability ([2]; first compound 0.08 µM): 0.682
relative viability ([2]; first compound 0.253 µM): 0.689
relative viability ([2]; first compound 0.8 µM): 0.694
relative viability ([2]; first compound 2.53 µM): 0.695
relative viability ([2]; first compound 8 µM): 0.735
relative viability ([3]; first compound 0.002 µM): 0.529
relative viability ([3]; first compound 0.006325 µM): 0.422
relative viability ([3]; first compound 0.02 µM): 0.45
relative viability ([3]; first compound 0.06325 µM): 0.429
relative viability ([3]; first compound 0.2 µM): 0.307
relative viability ([4]; first compound 0.002 µM): 0.82
relative viability ([4]; first compound 0.006325 µM): 0.863
relative viability ([4]; first compound 0.02 µM): 0.719
relative viability ([4]; first compound 0.06325 µM): 0.443
relative viability ([4]; first compound 0.2 µM): 0.412

EKVX
relative viability ([1]; first compound 0.002 µM): 0.343
relative viability ([1]; first compound 0.006325 µM): 0.313
relative viability ([1]; first compound 0.02 µM): 0.284
relative viability ([1]; first compound 0.06325 µM): 0.272
relative viability ([1]; first compound 0.2 µM): 0.22
relative viability ([2]; first compound 0.08 µM): 0.66
relative viability ([2]; first compound 0.253 µM): 0.766
relative viability ([2]; first compound 0.8 µM): 0.687
relative viability ([2]; first compound 2.53 µM): 0.548
relative viability ([2]; first compound 8 µM): 0.899
relative viability ([3]; first compound 0.002 µM): 0.523
relative viability ([3]; first compound 0.006325 µM): 0.578
relative viability ([3]; first compound 0.02 µM): 0.382
relative viability ([3]; first compound 0.06325 µM): 0.269
relative viability ([3]; first compound 0.2 µM): 0.204
relative viability ([4]; first compound 0.002 µM): 0.794
relative viability ([4]; first compound 0.006325 µM): 0.72
relative viability ([4]; first compound 0.02 µM): 0.657
relative viability ([4]; first compound 0.06325 µM): 0.359
relative viability ([4]; first compound 0.2 µM): 0.273

LXF-289
relative viability ([1]; first compound 0.002 µM): 0.455
relative viability ([1]; first compound 0.006325 µM): 0.4
relative viability ([1]; first compound 0.02 µM): 0.388
relative viability ([1]; first compound 0.06325 µM): 0.357
relative viability ([1]; first compound 0.2 µM): 0.399
relative viability ([2]; first compound 0.08 µM): 0.807
relative viability ([2]; first compound 0.253 µM): 0.787
relative viability ([2]; first compound 0.8 µM): 0.808
relative viability ([2]; first compound 2.53 µM): 0.703
relative viability ([2]; first compound 8 µM): 0.787
relative viability ([3]; first compound 0.002 µM): 0.22
relative viability ([3]; first compound 0.006325 µM): 0.21
relative viability ([3]; first compound 0.02 µM): 0.235
relative viability ([3]; first compound 0.06325 µM): 0.221
relative viability ([3]; first compound 0.2 µM): 0.121
relative viability ([4]; first compound 0.002 µM): 0.879
relative viability ([4]; first compound 0.006325 µM): 0.789
relative viability ([4]; first compound 0.02 µM): 0.741
relative viability ([4]; first compound 0.06325 µM): 0.815
relative viability ([4]; first compound 0.2 µM): 0.565

ABC-1
relative viability ([1]; first compound 0.002 µM): 1.22
relative viability ([1]; first compound 0.006325 µM): 1.02
relative viability ([1]; first compound 0.02 µM): 1.13
relative viability ([1]; first compound 0.06325 µM): 0.999
relative viability ([1]; first compound 0.2 µM): 0.827
relative viability ([2]; first compound 0.08 µM): 1.07
relative viability ([2]; first compound 0.8 µM): 0.976
relative viability ([2]; first compound 2.53 µM): 1.14
relative viability ([2]; first compound 8 µM): 1.14
relative viability ([3]; first compound 0.002 µM): 0.57
relative viability ([3]; first compound 0.006325 µM): 0.486
relative viability ([3]; first compound 0.02 µM): 0.416
relative viability ([3]; first compound 0.06325 µM): 0.392
relative viability ([3]; first compound 0.2 µM): 0.282
relative viability ([4]; first compound 0.002 µM): 1.19
relative viability ([4]; first compound 0.006325 µM): 1.34
relative viability ([4]; first compound 0.02 µM): 0.94
relative viability ([4]; first compound 0.06325 µM): 0.824
relative viability ([4]; first compound 0.2 µM): 0.529

NCI-H650
relative viability ([1]; first compound 0.002 µM): 0.488
relative viability ([1]; first compound 0.006325 µM): 0.27
relative viability ([1]; first compound 0.02 µM): 0.364
relative viability ([1]; first compound 0.06325 µM): 0.282
relative viability ([1]; first compound 0.2 µM): 0.302
relative viability ([2]; first compound 0.08 µM): 0.395
relative viability ([2]; first compound 0.253 µM): 0.425
relative viability ([2]; first compound 0.8 µM): 0.348
relative viability ([2]; first compound 2.53 µM): 0.567
relative viability ([2]; first compound 8 µM): 0.556
relative viability ([3]; first compound 0.002 µM): 0.539
relative viability ([3]; first compound 0.006325 µM): 0.432
relative viability ([3]; first compound 0.02 µM): 0.449
relative viability ([3]; first compound 0.06325 µM): 0.314
relative viability ([3]; first compound 0.2 µM): 0.305
relative viability ([4]; first compound 0.002 µM): 0.414
relative viability ([4]; first compound 0.006325 µM): 0.501
relative viability ([4]; first compound 0.02 µM): 0.469
relative viability ([4]; first compound 0.06325 µM): 0.306
relative viability ([4]; first compound 0.2 µM): 0.179

NCI-H1650
relative viability ([1]; first compound 0.002 µM): 0.591
relative viability ([1]; first compound 0.006325 µM): 0.367
relative viability ([1]; first compound 0.02 µM): 0.37
relative viability ([1]; first compound 0.06325 µM): 0.294
relative viability ([1]; first compound 0.2 µM): 0.315
relative viability ([2]; first compound 0.08 µM): 0.54
relative viability ([2]; first compound 0.253 µM): 0.602
relative viability ([2]; first compound 0.8 µM): 0.605
relative viability ([2]; first compound 2.53 µM): 0.725
relative viability ([2]; first compound 8 µM): 0.457
relative viability ([3]; first compound 0.002 µM): 0.306
relative viability ([3]; first compound 0.006325 µM): 0.3
relative viability ([3]; first compound 0.02 µM): 0.296
relative viability ([3]; first compound 0.06325 µM): 0.245
relative viability ([3]; first compound 0.2 µM): 0.205
relative viability ([4]; first compound 0.002 µM): 0.47
relative viability ([4]; first compound 0.006325 µM): 0.508
relative viability ([4]; first compound 0.02 µM): 0.504
relative viability ([4]; first compound 0.06325 µM): 0.32
relative viability ([4]; first compound 0.2 µM): 0.264

NCI-H2085
relative viability ([1]; first compound 0.002 µM): 0.685
relative viability ([1]; first compound 0.006325 µM): 0.496
relative viability ([1]; first compound 0.02 µM): 0.514
relative viability ([1]; first compound 0.06325 µM): 0.405
relative viability ([1]; first compound 0.2 µM): 0.373
relative viability ([2]; first compound 0.08 µM): 0.732
relative viability ([2]; first compound 0.253 µM): 0.721
relative viability ([2]; first compound 0.8 µM): 0.675
relative viability ([2]; first compound 2.53 µM): 0.802
relative viability ([2]; first compound 8 µM): 0.823
relative viability ([3]; first compound 0.002 µM): 0.179
relative viability ([3]; first compound 0.006325 µM): 0.249
relative viability ([3]; first compound 0.02 µM): 0.229
relative viability ([3]; first compound 0.06325 µM): 0.169
relative viability ([3]; first compound 0.2 µM): 0.209
relative viability ([4]; first compound 0.002 µM): 0.801
relative viability ([4]; first compound 0.006325 µM): 0.742
relative viability ([4]; first compound 0.02 µM): 0.712
relative viability ([4]; first compound 0.06325 µM): 0.363
relative viability ([4]; first compound 0.2 µM): 0.329

NCI-H1793
relative viability ([1]; first compound 0.002 µM): 0.454
relative viability ([1]; first compound 0.006325 µM): 0.319
relative viability ([1]; first compound 0.02 µM): 0.266
relative viability ([1]; first compound 0.06325 µM): 0.231
relative viability ([1]; first compound 0.2 µM): 0.172
relative viability ([2]; first compound 0.08 µM): 0.637
relative viability ([2]; first compound 0.253 µM): 0.653
relative viability ([2]; first compound 0.8 µM): 0.641
relative viability ([2]; first compound 2.53 µM): 0.898
relative viability ([2]; first compound 8 µM): 0.806
relative viability ([3]; first compound 0.002 µM): 0.388
relative viability ([3]; first compound 0.006325 µM): 0.312
relative viability ([3]; first compound 0.02 µM): 0.253
relative viability ([3]; first compound 0.06325 µM): 0.16
relative viability ([3]; first compound 0.2 µM): 0.134
relative viability ([4]; first compound 0.002 µM): 0.794
relative viability ([4]; first compound 0.006325 µM): 0.358
relative viability ([4]; first compound 0.02 µM): 0.293
relative viability ([4]; first compound 0.06325 µM): 0.205
relative viability ([4]; first compound 0.2 µM): 0.197
